In publication PMC7580722, “Design of new disubstituted imidazo[1,2-b]pyridazine derivatives as selective Haspin inhibitors. Synthesis, binding mode and anticancer biological evaluation” (Journal of Enzyme Inhibition and Medicinal Chemistry, 2020):

How the values were obtained:
HsCdk9/Cyclin T = test: CDK9 kinase assay; assay type: biochemical, human; conditions: SI = IC50 kinase X/IC50 Haspin
Method: Values are IC50 expressed in µM and calculated from dose–response curves (each point on the curves was performed in triplicate). Selectivity indexes (SI; in brackets) are calculated as follows: SI = IC50 kinase X/IC50 Haspin. ND: not determined. *IC50 values obtained using the ADP-Glo methodology (see Experimental section, Supplementary Material). […]
The reaction was carried out as described in general procedure A using 4 (0.150 g, 0.58 mmol, 1 equiv.), 2-aminopyrimidine-5-boronic acid (0.122 g, 0.88 mmol, 1.5 equiv.) and Cs2CO3 (0.575 g, 1.75 mmol, 3 equiv.). The crude mixture was purified by flash chromatography on silica gel (EtOAc) to afford 28 (0.115 g, 73 %) as a yellow […]
The reaction was carried out as described in general procedure A using 4 (0.100 g, 0.39 mmol, 1 equiv.), 1-naphthaleneboronic acid (0.083g, 0.47 mmol, 1.2 equiv.) and Cs2CO3 (0.381 g, 1.17 mmol, 3 equiv.). […]
Recombinant protein kinases were expressed and purified from E. coli (HsHaspin kinase domain aa470-798, HsCdk5/p25, RnDYRK1A kinase domain aa1-499, HsPIM1, MmCLK1) or baculovirus/Sf9 cells (HsCdk2/Cyclin A, HsCdk9/Cyclin T). […] The wet filter-bound radioactivity was determined in the presence of 20 µl scintillation fluid (GE healthcare) with a TopCount® Scintillation and Luminescence Counter (PerkinElmer). IC50 values were calculated from dose-response curves […]

HsCDK1 = target: T1, HsCDK1 (Homo sapiens, UniProt P06493); test: CDK1 kinase assay; assay type: biochemical
T1 construct: purchased ProQinase
Method: We therefore tested our compounds on two obvious candidates, HsCDK1 and HsPLK1 (Polo-like_kinase 1) both required for mitotic entry[50]
Values are IC50 expressed in µM and calculated from dose–response curves (each point from the curves was performed in duplicate). NR: not relevant. […]
Recombinant protein kinases were expressed and purified from E. coli (HsHaspin kinase domain aa470-798, HsCdk5/p25, RnDYRK1A kinase domain aa1-499, HsPIM1, MmCLK1) or baculovirus/Sf9 cells (HsCdk2/Cyclin A, HsCdk9/Cyclin T). Native SscCK1δ /ε and SscGSK3α/β were purified from pig brain whereas HsPlk1, HsCdk1 and HsAurora B were purchased from ProQinase and SignalChem respectively. Kinase assays were performed in specific buffers and substrates for each kinase tested in the presence of 15 µM [γ-33P] ATP (3,000 Ci/mmol, 10 mCi/ml; PerkinElmer) in a final volume of 30 µl as previously reported 51. After 30 min incubation at 30°C, the reaction mix was spotted onto GE healthcare P81 phosphocellulose paper using a FilterMate Harvester (PerkinElmer), and the filter was extensively washed with a 1% phosphoric acid solution. The wet filter-bound radioactivity was determined in the presence of 20 µl scintillation fluid (GE healthcare) with a TopCount® Scintillation and Luminescence Counter (PerkinElmer). IC50 values were calculated from dose-response curves

RPE-1 = test: Cell viability, monolayer (2D), MTS assay; assay type: cell-based; conditions: Homo sapiens, 48 h
U-2 OS = test: Cell viability, monolayer (2D), MTS assay; assay type: cell-based; conditions: Homo sapiens, U2OS, 48 h
HCT116 = test: Cell viability, monolayer (2D), MTS assay; assay type: cell-based; conditions: Homo sapiens, HCT-116, 48 h
HBL100 = test: Cell viability, monolayer (2D), MTS assay; assay type: cell-based; conditions: Homo sapiens, HBL-100, 48 h
[1] = tested on: Haspin activity (H3T3ph) in U-2 OS cells; test: In-cell Haspin activity, H3T3ph immunofluorescence; assay type: cell-based, human; conditions: 24 h
U-2 OS cells [2] = test: Scratch wound cell migration assay (IncuCyte); assay type: cell-based, human; conditions: 0.6 µM, 0.5% FBS, normalised against DMSO control (100%)
U-2 OS cells [3] = test: Cell cycle analysis by flow cytometry (propidium iodide); conditions: 2.5 µM, 24 h, U-2 OS
Method: Figure 6. […] DNA content was measured by flow cytometry and representative profiles are shown. (B) quantification of the proportion of cells in each phase of the cell cycle from the experiment described in (A). Results are mean percentage (n = 3 independent experiments).
Cellular evaluation methods
All media were supplemented with 10% fetal calf serum (unless overwise specified) and 2 mM L-glutamine and cells were cultured
F68-pluronic acid. Cells were fixed for 2h in ice-cold ethanol, then washed twice in PBS containing 0.1% F68-pluronic acid, centrifuged at 200 g and resuspended in a PBS buffer containing 1% Triton, 100 µg/ml RNase A (Thermo Scientific) and 40 µg/ml propidium iodide (Life Technologies). DNA content was determined using a FACS Canto II (BD) and the data were analyzed using FCS Express Cytometry software (De Novo Software).
Twenty thousand events were collected in each run.

T1 sequence (P06493 whole entry): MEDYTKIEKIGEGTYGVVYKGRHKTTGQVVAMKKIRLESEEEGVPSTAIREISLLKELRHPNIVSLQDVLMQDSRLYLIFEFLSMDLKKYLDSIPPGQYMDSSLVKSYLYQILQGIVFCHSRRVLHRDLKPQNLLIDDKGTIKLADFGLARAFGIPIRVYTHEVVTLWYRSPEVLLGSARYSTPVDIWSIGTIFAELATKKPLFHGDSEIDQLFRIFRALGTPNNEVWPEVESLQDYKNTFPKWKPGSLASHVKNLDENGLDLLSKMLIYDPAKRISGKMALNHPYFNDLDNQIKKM
T1 sequence (P14635 whole entry partner): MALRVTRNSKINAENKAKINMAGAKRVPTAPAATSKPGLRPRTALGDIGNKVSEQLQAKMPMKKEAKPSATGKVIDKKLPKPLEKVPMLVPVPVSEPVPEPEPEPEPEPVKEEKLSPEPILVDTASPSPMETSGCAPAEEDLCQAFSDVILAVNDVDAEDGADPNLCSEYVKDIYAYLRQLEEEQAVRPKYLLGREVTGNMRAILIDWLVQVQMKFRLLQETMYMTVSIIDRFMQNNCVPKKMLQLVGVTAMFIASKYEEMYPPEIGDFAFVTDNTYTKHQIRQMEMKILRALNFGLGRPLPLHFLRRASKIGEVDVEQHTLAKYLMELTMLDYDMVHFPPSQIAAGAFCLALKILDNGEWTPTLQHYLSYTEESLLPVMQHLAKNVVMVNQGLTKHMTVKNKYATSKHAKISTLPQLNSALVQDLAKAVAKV

c1cc2[nH]ncc2cc1-c1cnc2ccc(OC[C@@H]3CNCCO3)nn12 [Compound 21]
selectivity for CDK9 vs Haspin (HsCdk9/Cyclin T): 28 fold
SI CDK1/Haspin (HsCDK1; SI = IC50 CDK1/IC50 Haspin): 392
IC50 (HsCDK1; Table 4, read-out: IC50 HsCDK1): 2350 nM
EC50 (RPE-1): 4.6 µM
EC50 (U-2 OS): 5.2 µM
EC50 (HCT116): > 10 µM
EC50 (HBL100): > 10 µM
H3T3ph signal remaining in prometaphase cells (% of ctrl) ([1]; 0.5 µM): 2.4%
inhibition at 0.05 µM ([1]; Homo sapiens, U2OS, 0.05 µM, read-out: inhibition of cellular Haspin activity): > 80%
normalised wound closure after 24 h (U-2 OS cells [2]): around 100%
cells in G2/M phase (% of cell total population) (U-2 OS cells [3]; DMSO control 12.8%): 21.4%
cells in S phase (% of cell total population) (U-2 OS cells [3]; DMSO control 51.9%): 32%
